Laboratory results as given in ChEMBL document CHEMBL1201862, “PubChem BioAssay data set” (2004).
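Grown in 96-well plates, cells were treated for 48 hours with each compound at five concentrations. Insufficient inhibition: endpoint recorded as highest concentration tested. GI50 is the concentration that inhibits growth by half.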 Calls of active or inactive are those of the source. Rule as the data show it: active = GI50 up to about 1.1 µM and inactive = higher.

What was measured:
Test in all cases: NCI anticancer screen, dose series, 48 h
SNB-75 = tested on: SNB-75
UACC-257 = tested on: UACC-257
A549 = tested on: A549
NCI-H226 = tested on: NCI-H226
EKVX = tested on: EKVX
RPMI-8226 = tested on: RPMI-8226
SNB-19 = tested on: SNB-19
SR = tested on: SR
UACC-62 = tested on: UACC-62
SK-MEL-28 = tested on: SK-MEL-28
CCRF-CEM = tested on: CCRF-CEM
HCT-116 = tested on: HCT-116
IGROV-1 = tested on: IGROV-1
U-251 = tested on: U-251
LOX IMVI = tested on: LOX IMVI
NCI-H460 = tested on: NCI-H460

Measured: GI50

CSc1ccc(NC(=O)C2c3[nH]c4ccccc4c3C3CCC(C(C)(C)C)CC3C2C(=O)O)cc1 (centres undefined)
inactive: SNB-75 17.2 µM | UACC-257 34.1 µM | A549 15.2 µM | NCI-H226 15.3 µM | EKVX 24.3 µM | RPMI-8226 20.3 µM | SNB-19 30.5 µM | SR 11.5 µM | UACC-62 17.4 µM | SK-MEL-28 22.9 µM | CCRF-CEM 10.7 µM | HCT-116 14.4 µM | IGROV-1 17 µM | U-251 15 µM

Cc1nc(Nc2ccc([N+](=O)[O-])cc2)sc1C(=O)/C=C/c1ccc(N(C)C)cc1
inactive: SNB-75 > 100 µM | UACC-257 81.3 µM | A549 40.7 µM | EKVX 52.5 µM | RPMI-8226 54.1 µM | SNB-19 > 100 µM | UACC-62 > 100 µM | SK-MEL-28 > 100 µM | CCRF-CEM 60.1 µM | LOX IMVI 64.7 µM | IGROV-1 > 100 µM | NCI-H460 65.2 µM | U-251 > 100 µM

CCOC(=O)N1CCC(=O)C[C@@H]1C/C=C/P1(=O)O[C@H](c2ccccc2)C(C)N1C(C)C (some centres undefined)
inactive: SNB-75 > 100 µM | UACC-257 > 100 µM | A549 > 100 µM | NCI-H226 > 100 µM | EKVX > 100 µM | RPMI-8226 > 100 µM | SNB-19 > 100 µM | SR > 100 µM | UACC-62 > 100 µM | SK-MEL-28 > 100 µM | HCT-116 > 100 µM | IGROV-1 > 100 µM | U-251 > 100 µM

COC1C2C[C@@H](O)CCC2C(C(=O)OCCl)C[C@H]1O (some centres undefined)
inactive: SNB-75 > 100 µM | UACC-257 > 100 µM | A549 > 100 µM | NCI-H226 > 100 µM | RPMI-8226 > 100 µM | SNB-19 > 100 µM | SR > 100 µM | UACC-62 > 100 µM | SK-MEL-28 > 100 µM | CCRF-CEM > 100 µM | HCT-116 > 100 µM | IGROV-1 > 100 µM | NCI-H460 > 100 µM | U-251 > 100 µM

NC1=NC(Cn2nc(-c3ccccc3)c3ccccc3c2=O)=NNC(=O)N1
inactive: SNB-75 > 100 µM | UACC-257 > 100 µM | A549 > 100 µM | NCI-H226 > 100 µM | RPMI-8226 > 100 µM | SNB-19 > 100 µM | SR > 100 µM | UACC-62 > 100 µM | SK-MEL-28 > 100 µM | CCRF-CEM > 100 µM | HCT-116 > 100 µM | IGROV-1 > 100 µM | NCI-H460 > 100 µM | U-251 > 100 µM

CCSc1c2ccccc2c(-c2nc(F)nc(F)n2)n1CCc1ccccc1
inactive: A549 > 100 µM | NCI-H226 > 100 µM | EKVX > 100 µM | RPMI-8226 > 100 µM | SNB-19 > 100 µM | SR 51.3 µM | SK-MEL-28 > 100 µM | CCRF-CEM 36.2 µM | HCT-116 > 100 µM | LOX IMVI > 100 µM | NCI-H460 > 100 µM | U-251 > 100 µM

N#Cc1cccc(N2C(=O)c3c(c(-c4ccccc4)c(-c4ccc(Sc5ccc(-c6c(-c7ccccc7)c7c(c(-c8ccccc8)c6-c6ccccc6)C(=O)N(c6cccc(C#N)c6)C7=O)cc5)cc4)c(-c4ccccc4)c3-c3ccccc3)C2=O)c1
inactive: UACC-257 > 100 µM | A549 > 100 µM | EKVX 35.8 µM | RPMI-8226 > 100 µM | SNB-19 29.3 µM | UACC-62 61.7 µM | SK-MEL-28 > 100 µM | CCRF-CEM > 100 µM | HCT-116 65.2 µM | LOX IMVI 78.2 µM | IGROV-1 28.8 µM | NCI-H460 > 100 µM | U-251 21.2 µM

CC(C)=CCC/C(=C/CC/C(C)=C/CCc1ccoc1)C(=O)O
inactive: SNB-75 > 100 µM | UACC-257 > 100 µM | A549 > 100 µM | NCI-H226 73.5 µM | EKVX > 100 µM | SNB-19 > 100 µM | UACC-62 > 100 µM | SK-MEL-28 > 100 µM | CCRF-CEM > 100 µM | HCT-116 > 100 µM | LOX IMVI > 100 µM | NCI-H460 > 100 µM | U-251 > 100 µM

COCC12CC(CC1=O)C1C2ON2c3ccccc3C(=O)C12c1ccccc1 (centres undefined)
inactive: SNB-75 > 100 µM | UACC-257 52 µM | A549 > 100 µM | NCI-H226 > 100 µM | EKVX > 100 µM | RPMI-8226 40.7 µM | SNB-19 > 100 µM | SR 88.1 µM | UACC-62 77.4 µM | SK-MEL-28 > 100 µM | CCRF-CEM 61.2 µM | HCT-116 > 100 µM | IGROV-1 > 100 µM | U-251 > 100 µM

c1csc(C[N+]23CN4CN(CN(C4)C2)C3)c1
inactive: SNB-75 > 100 µM | UACC-257 > 100 µM | A549 30 µM | NCI-H226 > 100 µM | RPMI-8226 18.9 µM | SNB-19 > 100 µM | SR 15.3 µM | UACC-62 22.6 µM | SK-MEL-28 > 100 µM | CCRF-CEM 18.3 µM | HCT-116 > 100 µM | IGROV-1 29.9 µM | NCI-H460 23.2 µM | U-251 22.3 µM
